Experimental data from US6365616B1, “Methimazole derivatives and tautomeric cyclic thiones to treat autoimmune diseases” (Sentron Medical, Inc., priority 1998, dated 2002).

Test system: silencer complex with Fragment 140 (upstream silencer/enhancer) of the MHC Class I PD1 5′-flanking region
Test: Gel shift (EMSA) with upstream 140 class I probe, extracts from treated FRTL-5 cells
Type: cell-based, rat
Settings: 5H cells treated 48 hours
Experimental: FRTL-5 rat thyroid cells (Kohn, L. D., et al., U.S. Pat. No. 4,609,622 (1986); Ambesi-Impiombato E S., U.S. Pat. No. 4,608,341 (1986)) are grown as described below. […] Their doubling time was approximately 36±6 hours; and, after 6 days in medium with no TSH (5H) and 5.0% serum, […] TSH elevated iodide uptake 8-10 fold and thymidine incorporation>10 fold. Cells were diploid, between their 5th and 25th passage in most experiments, and were routinely grown in Coon's modified F12 medium supplemented with 5 % calf serum, 1 mmol/L nonessential amino acids (GIBCO) and a mixture of 6 hormones (6H medium): TSH (1×10^−10 M), insulin (10 μg/ml), hydrocortisone 0.4 ng/ml, human transferrin (5 μg/ml), somatostatin ([…]) and glycyl-L-histidyl-L-lysine acetate (10 ng/ml) (Kohn, L. D. et al., U.S. Pat. No. 4,609,622 (1986); Ambesi-Impiombato, E. S., U.S. Pat. No. 4,608,341 (1986)). They were passaged every 7-10 days and provided fresh media every 2 or 3 days. In individual experiments, cells were grown to near confluency in 6H medium then, in some experiments, were shifted to medium with no TSH (5H), to medium with neither TSH and or insulin (4H), or to medium with no TSH, no insulin and no hydrocortisone (3H) plus either 5% or 0.2% serum for 4-7 days before use.
Cells were grown in 6H medium with 5 % calf serum for 6-7 days to 70-80% confluence, then shifted to 5H medium with 5 % calf serum for 5 days. TSH (1×10^−10 M), gamma-interferon (100 U/ml), MMI (5 mM), and different concentrations of MMI derivatives or tautomeric cyclic thiones (0.0001 to 10 mM) were added as appropriate for […]. Cells were then harvested and extracts were made by a modification of a method of Dignam, J., et al. Methods in Enzymology, 101:582-598 (1983). In brief, cells were harvested by scraping after being washed twice with cold phosphate-buffer saline (PBS). Subsequently they were pelleted, washed in cold PBS and then pelleted again. The pellet was resuspended in Dignam buffer C (20 mM Hepes buffer at pH 7.9, 1.5 mM MgCl2, 0.42 M NaCl, 25% glycerol, 0.5 mM dithiotreitol (DTT), 0.5 mM phenylmethylsulfonylfluoride (PMSF), 1 […] pepstatin). The final NaCl concentration was adjusted on the basis of cell pellet volume to 0.42 M and cells were lysed by repeated cycles of freezing and thawing. Extracts were then centrifuged at 10,000×g at 4° C. for 20 min. The supernatant was recovered, aliquoted and stored at −70° C.
Binding reactions were performed in a volume of 20 μl for 30 min at room temperature. The typical reaction mixture contained 1.5 fmol of ^32P DNA, 3 μg of cell extracts, 1 to 3 μg of poly (dI-dC) in 10 mM Tris-Cl (pH 7.9), 1 mM MgCl2, 1 mM DTT, 1 mM ethylenediamine tetra acetic acid (EDTA), and 5 % glycerol. After incubation, reaction mixtures were subjected to electrophoresis in 4% polyacrylamide gels for 90-120 min at 160 V in 0.5× TBE (Sambrook, J., et al., Molecular Cloning: A Laboratory Manual, 2nd ed. Cold Spring Harbor Press, NY, 2: 11.23-11.44 (1989)), then dried and autoradiographed. Probes were labeled with [α32P] deoxy CTP by Klenow enzyme (In Vitro labeling kit, Amersham) following the manufacturer's instructions, or by [γ^32P] ATP using T4 polynucleotide kinase. Labeled probes were then purified either through G-50 columns (5 prime→3 Prime) or on an 8% polyacrylamide gel.
The effect of the addition of 5 mM MMI to cells for 48 hours prior to extract preparation from cells maintained in SH medium is shown in lane 1 of FIG. 2. The effect of the addition of 1 mM concentration of representative MMI derivatives to cells maintained in 5H medium for 48 hours prior to extract preparation is shown in lanes 3 to 8 in FIG. 2. The structures and names of the representative numbered compounds are in Table 1. The MMI or its derivatives decrease the silencer complex. The decrease can be quantitated by densitometry of autoradiograms or phosphoimaging on a Bas 1500 imager (for example). […]

Row | Structure (SMILES) | % inhibition of control silencer complex formation (10 μM) | % inhibition of control silencer complex formation (100 μM) | % inhibition of control silencer complex formation (1 mM) | % inhibition of control silencer complex formation (5 mM)
1 | Cn1ccnc1S [Compound 1, 1-Methylimidazole-2-thiol] | 0% | 0% | 20 ± 15% | 75 ± 12%
2 | Cc1ncc([N+](=O)[O-])n1CCO [Compound 2, 2-Methyl-5-nitro-1-imidazole ethanol] | 0% | 0% | 45 ± 19% | 86 ± 15%
3 | Sc1ncc[nH]1 [Compound 3, 2-Mercaptoimidazole] | 0% | 0% | 0% | 0%
4 | Sc1nc2ccccc2[nH]1 [Compound 4, 2-Mercaptobenzimidazole] | 0% | 5% | 75 ± 10% | Insol
5 | O=[N+]([O-])c1ccc2[nH]c(S)nc2c1 [Compound 5, 2-Mercapto-5-nitrobenzimidazole] | 0% | 0% | 0% | Insol
6 | Cc1ccc2[nH]c(S)nc2c1 [Compound 6, 2-Mercapto-5-methylbenzimidazole] | 0% | 0% | 20 ± 18% | Insol
7 | CSc1nccn1C [Compound 7, S-Methylmethimazole] | 0% | 10 ± 13% | 50 ± 9% | –
8 | Cn1ccn(C)c1=S [Compound 8, N-Methylmethimazole] | 0% | 18 ± 18% | 70 ± 14% | –
9 | Cc1cnc(S)n1C [Compound 9, 5-Methylmethimazole] | 0% | 0% | 15 ± 15% | 30 ± 20%
10 | Cn1c(-c2ccccc2)cnc1S [Compound 10, 5-Phenylmethimazole] | 25% | 60 ± 10% | 85 ± 15% | –
